Data as given in patent publication US20220088102A1, “CROTON LECHLERI COMPOSITIONS AND THEIR USE IN THE TREATMENT OF CYSTIC FIBROSIS” (priority 2020, published 2022).
In brackets after ≈: the same amount, converted by molar mass. Where two headings read alike, the source gives them in different places. Values belong to the compound of their own block, whether it stands above or below them.

Assays:
[1] = Log P analysis (partition coefficient, water and n-Octanol)
Text: (§1) All reference to skin includes references to epithelial skin and epithelial layer of the lungs, nose, mouth and throat. IVPT is a flux measurement that is common to those skilled in the art to evaluate topical drugs inclusive to topical delivery to the lungs, nose, mouth and throat.
Log P is an assessment of a molecule's lipophilicity, indicating how readily an analyte can partition between aqueous and organic phases. […] To reach high systemic levels, a topical drug must be permeable enough, which is defined as lipophilic enough, to partition into the lipid bilayer of the skin, but, not so lipophilic that once it is in the skin bilayer it will stay sequestered there. Lipophilicity plays a major role in determining where drugs are distributed within the body after absorption into tissues and, as a consequence, in how rapidly they are metabolized and excreted.
The Log P value is a constant defined in the following manner: Log P=log 10 (Partition Coefficient) Partition Coefficient, P=[organic]/[aqueous] Where [ ] indicates the concentration of solute in the organic and aqueous partition. […] Although log P is a constant, its value is dependent on the choice of the organic partitioning solvent and, to a lesser degree, on the conditions of measurement.

[2] = In vitro Permeation Test (IVPT), Franz diffusion cell, Strat-M membranes
Text: as §1

DNA of the cells = details: Chen 1994, cited from earlier work; for healing effects: in the Ecuadorian sap
[3] = system: methicillin-susceptible Staphylococcus aureus (MSSA) strains; experiment: In vitro MIC and MBC assay, strain panel (Example 3); type: cell-based; details: for MIC (% relative to amount in AB-101): 50% = 10 μg/mL taspine
Text: (§2) Measures included the minimum inhibitory concentration (MIC) which is the lowest concentration of AB-101 that prevents visible growth of the bacterium or pathogen, and minimum bactericidal concentration (MBC) which is the lowest concentration of an antibacterial agent required to kill a bacterium.

[4] = system: methicillin-resistant Staphylococcus aureus (MRSA) strains; experiment: as above; type: cell-based; details: for MIC: MRSA (Table 13); for MBC (% relative to amount in AB-101) / MIC (% relative to amount in AB-101): MRSA; for MIC (% relative to amount in AB-101): 50% = 10 μg/mL taspine
Text: as §2

wound healing = details: in vivo in rats, Pieters et al 1995; cited from earlier work
[5] = component of AB-101, 100%, Batch 0
[6] = component of AB-101, 100%, Batch 1
[7] = component of AB-101, 100%, Batch 2
[8] = component of AB-101, 100%, Batch X
[9] = component of AB-101 Lyophilized & Resuspended, Batch 0
[10] = component of AB-101 Lyophilized & Resuspended, Batch 1
[11] = component of AB-101 Lyophilized & Resuspended, Batch 2
[12] = component of AB-101 Lyophilized & Resuspended, Batch X
[13] = component permeating from AB-101 100% Lot 1
[14] = component permeating from AB-101 100% Lot X
[15] = strain ATCC 29213, QC control (Table 13)
[16] = strain CDC 461, MupirocinS, MSSA (Table 13)
[17] = strain CDC 463, MupirocinS, MSSA (Table 13)
[18] = highest concentration tested 50% relative to AB-101 = 10 μg/mL taspine
[19] = strain 1674606, MupirocinR, MSSA
[20] = strain 1674608, MupirocinR, MSSA
[21] = strain CDC 461, MupirocinS, MSSA
[22] = strain CDC 462, MupirocinS, MSSA
[23] = strain CDC 463, MupirocinS, MSSA
[24] = strain CDC 464, MupirocinS, MSSA
[25] = strain CDC 484, MupirocinS, MSSA
[26] = strain CDC 485, MupirocinS, MSSA

Compound: Oc1cc(O)c2c(c1)O[C@H](c1cc(O)c(O)c(O)c1)[C@H](O)C2 [Epigallocatcchin]
LogP [1, 5]: −0.79 | LogP [1, 6]: 0.27 | LogP [1, 7]: 0.86 | LogP [1, 8]: 1.82 | LogP [1, 9]: 1.20 | LogP [1, 10]: −0.11 | LogP [1, 11]: −1.71 | LogP [1, 12]: −0.55

Compound: Oc1cc(O)c2c(c1)O[C@H](c1cc(O)c(O)c(O)c1)[C@H](O)C2 [Epigallocatechin, epigallocatechin]
Flux (J) [2, 13]: 503.51 ug/cm^2/hr | Flux (J) [2, 14]: 57.09 ug/cm^2/hr | effect on cell proliferation (DNA of the cells): slightly stimulating to cell proliferation

Compound: Oc1cc(O)c2c(c1)O[C@H](c1cc(O)c(O)c(O)c1)[C@@H](O)C2 [Gallocatechin, gallocatechin]
Flux (J) [2, 13]: 18.25 ug/cm^2/hr | Flux (J) [2, 14]: 4.33 ug/cm^2/hr | effect on cell proliferation (DNA of the cells): slightly stimulating to cell proliferation

MIC ([3]; strain 1674606, MupirocinR, MSSA (Table 13)): 0.002 to 0.008 ng/mL | MIC ([3]; strain 1674608, MupirocinR, MSSA (Table 13)): 0.002 to 0.004 ng/mL | MIC [3, 15]: 0.001 to 0.002 ng/mL | MIC [3, 16]: 0.004 to 0.008 ng/mL | MIC [3, 17]: 0.008 to 0.016 ng/mL | MIC ([3]; strain CDC 485, MupirocinS, MSSA (Table 13)): 0.002 to 0.004 ng/mL | MIC ([4]; strain CDC 480, MupirocinS): 0.032 to 0.064 ng/mL | MIC ([4]; strain CDC 481, MupirocinS): 0.016 to 0.032 ng/mL | MIC ([4]; strain CDC 482, MupirocinS): 0.008 to 0.032 ng/mL
Compound: COc1cccc(OC)c1C(=O)N[C@@H]1C(=O)N2[C@@H]1SC(C)(C)[C@@H]2C(=O)O [Methicillin]

MIC ([3]; Staphylococcus aureus, MSSA, strain 1674606, MupirocinR, MSSA, read-out: MIC): > 256000 ng/mL | MIC ([3]; Staphylococcus aureus, MSSA, strain 1674608, MupirocinR, MSSA, read-out: MIC): > 256000 ng/mL | MIC ([3]; Staphylococcus aureus, MSSA, strain CDC 463, MupirocinS, MSSA, read-out: MIC): 250 to 500 ng/mL (≈ 499 to 999 nM) | MIC ([3]; Staphylococcus aureus, MSSA, strain CDC 484, MupirocinS, MSSA, read-out: MIC): ≤ 250 ng/mL | MIC ([3]; Staphylococcus aureus, MSSA, strain CDC 485, MupirocinS, MSSA, read-out: MIC): ≤ 250 ng/mL | MIC [3, 15]: ≤0.00025 to 0.0005 ng/mL | MIC [3, 16]: ≤0.00025 to 0.001 ng/mL | MIC [3, 17]: ≤0.00025 to 0.0005 ng/mL | MIC ([4]; strain CDC 227, MupirocinS): ≤0.00025 to 0.0005 ng/mL
Compound: C/C(=C\C(=O)OCCCCCCCCC(=O)O)C[C@@H]1OC[C@H](C[C@@H]2O[C@H]2[C@@H](C)[C@H](C)O)[C@@H](O)[C@H]1O [Mupirocin]

Compound: COc1ccc2c(=O)oc3c(OC)cc(CCN(C)C)c4c(=O)oc1c2c34 [Taspin]
LogP [1, 5]: −1.15 | LogP [1, 6]: −1.76 | LogP [1, 7]: −0.90 | LogP [1, 8]: −0.31 | LogP [1, 9]: −1.06 | LogP [1, 10]: −0.94 | LogP [1, 11]: −1.71 | LogP [1, 12]: −0.07

Compound: COc1ccc2c(=O)oc3c(OC)cc(CCN(C)C)c4c(=O)oc1c2c34 [Taspine, taspine]
activity as evaluated by this invitro test method (MIC, MBC) [3, 18]: does not have activity | MBC (% relative to amount in AB-101) [3, 19]: >50 % relative to amount in AB-101 | MIC (% relative to amount in AB-101) [3, 19]: >50 % relative to amount in AB-101 | MBC (% relative to amount in AB-101) [3, 20]: >50 % relative to amount in AB-101 | MIC (% relative to amount in AB-101) [3, 20]: >50 % relative to amount in AB-101 | MBC (% relative to amount in AB-101) ([3]; strain ATCC 29213, QC control): >50 % relative to amount in AB-101 | MIC (% relative to amount in AB-101) ([3]; strain ATCC 29213, QC control): >50 % relative to amount in AB-101 | MBC (% relative to amount in AB-101) [3, 21]: >50 % relative to amount in AB-101 | MIC (% relative to amount in AB-101) [3, 21]: >50 % relative to amount in AB-101 | MBC (% relative to amount in AB-101) [3, 22]: >50 % relative to amount in AB-101 | MIC (% relative to amount in AB-101) [3, 22]: >50 % relative to amount in AB-101 | MBC (% relative to amount in AB-101) [3, 23]: >50 % relative to amount in AB-101 | MIC (% relative to amount in AB-101) [3, 23]: >50 % relative to amount in AB-101 | MBC (% relative to amount in AB-101) [3, 24]: >50 % relative to amount in AB-101 | MIC (% relative to amount in AB-101) [3, 24]: >50 % relative to amount in AB-101 | MBC (% relative to amount in AB-101) [3, 25]: >50 % relative to amount in AB-101 | MIC (% relative to amount in AB-101) [3, 25]: >50 % relative to amount in AB-101 | MBC (% relative to amount in AB-101) [3, 26]: >50 % relative to amount in AB-101 | MIC (% relative to amount in AB-101) [3, 26]: >50 % relative to amount in AB-101 | activity as evaluated by this invitro test method (MIC, MBC) [4, 18]: does not have activity | MBC (% relative to amount in AB-101) ([4]; strain 1674607, MupirocinR): >50 % relative to amount in AB-101 | MIC (% relative to amount in AB-101) ([4]; strain 1674607, MupirocinR): >50 % relative to amount in AB-101 | MBC (% relative to amount in AB-101) ([4]; strain 1674611, MupirocinR): >50 % relative to amount in AB-101 | MIC (% relative to amount in AB-101) ([4]; strain 1674611, MupirocinR): >50 % relative to amount in AB-101 | MBC (% relative to amount in AB-101) ([4]; strain CDC 218, MupirocinR): >50 % relative to amount in AB-101 | MIC (% relative to amount in AB-101) ([4]; strain CDC 218, MupirocinR): >50 % relative to amount in AB-101 | MBC (% relative to amount in AB-101) ([4]; strain CDC 220, MupirocinS): >50 % relative to amount in AB-101 | MIC (% relative to amount in AB-101) ([4]; strain CDC 220, MupirocinS): >50 % relative to amount in AB-101 | MBC (% relative to amount in AB-101) ([4]; strain CDC 224, MupirocinR): >50 % relative to amount in AB-101 | MIC (% relative to amount in AB-101) ([4]; strain CDC 224, MupirocinR): >50 % relative to amount in AB-101 | MBC (% relative to amount in AB-101) ([4]; strain CDC 227, MupirocinS): >50 % relative to amount in AB-101 | MIC (% relative to amount in AB-101) ([4]; strain CDC 227, MupirocinS): >50 % relative to amount in AB-101 | MBC (% relative to amount in AB-101) ([4]; strain CDC 228, MupirocinR): >50 % relative to amount in AB-101 | MIC (% relative to amount in AB-101) ([4]; strain CDC 228, MupirocinR): >50 % relative to amount in AB-101 | MBC (% relative to amount in AB-101) ([4]; strain CDC 480, MupirocinS): >50 % relative to amount in AB-101 | MIC (% relative to amount in AB-101) ([4]; strain CDC 480, MupirocinS): >50 % relative to amount in AB-101 | MBC (% relative to amount in AB-101) ([4]; strain CDC 481, MupirocinS): >50 % relative to amount in AB-101 | MIC (% relative to amount in AB-101) ([4]; strain CDC 481, MupirocinS): >50 % relative to amount in AB-101 | MBC (% relative to amount in AB-101) ([4]; strain CDC 482, MupirocinS): >50 % relative to amount in AB-101 | MIC (% relative to amount in AB-101) ([4]; strain CDC 482, MupirocinS): >50 % relative to amount in AB-101 | MBC (% relative to amount in AB-101) ([4]; strain CDC 483, MupirocinS): >50 % relative to amount in AB-101 | MIC (% relative to amount in AB-101) ([4]; strain CDC 483, MupirocinS): >50 % relative to amount in AB-101 | healing effects (DNA of the cells): showed little healing effects

Compound: COc1ccc([C@H]2Oc3c(OC)cc(CCCO)cc3[C@@H]2CO)cc1OC [dimethylcedrusin, 3′,4-0-dimethylcedrusin]
wound healing activity (wound healing): improved wound healing in vivo | healing effects (DNA of the cells): showed little healing effects

Compound: catechin
effect on cell proliferation (DNA of the cells): showed little effect

Compound: epicatechin
effect on cell proliferation (DNA of the cells): showed little effect
